Earlier results in patent publication US20240115670A1, “FIBROBLAST ACTIVATION PROTEIN MODULATION TO ALTER IMMUNE CELL MIGRATION AND TUMOR INFILTRATION” (Georgetown University, priority 2021, published 2024).

Columns and labels:
[1] = tested on: primitive hematopoietic progenitor cells; settings: by increasing G-CSF, IL-6, and IL-11 from bone marrow stromal cells; cited from earlier work
[2] = tested on: advanced metastatic colorectal cancer; settings: cited from earlier work
myeloma cells = settings: coculture with osteoclasts; cited from earlier work
stage IV melanoma = settings: cited from earlier work
[3] = tested on: advanced non-small cell lung cancer; settings: cited from earlier work
[4] = tested on: syngeneic tumors derived from fibrosarcoma, lymphoma, melanoma, mastocytoma, rhabdomyosarcoma and bladder cancer cell lines; settings: oral administration; cited from earlier work
serum DPPIV = serum DPPIV (Homo sapiens, UniProt P27487); settings: cited from earlier work
serum DPPIV, sequence (P27487 39-766 limits assumed): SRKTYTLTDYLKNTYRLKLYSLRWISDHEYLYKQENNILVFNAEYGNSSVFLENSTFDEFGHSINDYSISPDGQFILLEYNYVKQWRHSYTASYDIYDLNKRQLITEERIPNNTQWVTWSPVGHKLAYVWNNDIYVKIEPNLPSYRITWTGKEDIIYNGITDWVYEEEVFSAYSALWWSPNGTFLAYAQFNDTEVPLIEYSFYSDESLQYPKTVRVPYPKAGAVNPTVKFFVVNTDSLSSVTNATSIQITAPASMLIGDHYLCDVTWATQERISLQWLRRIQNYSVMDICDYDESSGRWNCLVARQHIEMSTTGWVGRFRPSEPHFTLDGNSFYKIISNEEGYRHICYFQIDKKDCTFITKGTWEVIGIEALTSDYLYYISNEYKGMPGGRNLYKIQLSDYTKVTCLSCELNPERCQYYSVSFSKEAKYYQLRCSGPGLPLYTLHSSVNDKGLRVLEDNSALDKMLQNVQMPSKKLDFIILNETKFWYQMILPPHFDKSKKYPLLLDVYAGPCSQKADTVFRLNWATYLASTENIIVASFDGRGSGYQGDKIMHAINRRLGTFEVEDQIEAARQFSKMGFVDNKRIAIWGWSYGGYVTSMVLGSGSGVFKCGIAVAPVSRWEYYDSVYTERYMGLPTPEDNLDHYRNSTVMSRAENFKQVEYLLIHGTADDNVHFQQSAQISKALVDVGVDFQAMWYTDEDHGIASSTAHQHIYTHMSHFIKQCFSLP

myeloma = settings: in vivo; cited from earlier work
colon carcinoma = settings: combination with oxaliplatin; cited from earlier work
CAF = settings: via downregulation of FAP; cited from earlier work
gastric cancer = settings: via downregulation of FAP; cited from earlier work
[5] = tested on: advanced or metastatic FAP+ cancer; settings: cited from earlier work
[6] = tested on: metastatic colorectal cancer; settings: cited from earlier work

CC(C)[C@H](N)C(=O)N1CCC[C@H]1B(O)O [talabostat, Talabostat]
growth of primitive hematopoietic progenitor cells [1]: promoted growth
Grade 5 adverse events ([2]; single agent trial, acute renal failure due to cytokine storm): one
clinical responses ([2]; single agent): no complete or partial responses
myeloma cell proliferation (myeloma cells): concentration-dependent decreased
patients discontinuing talabostat due to side effects (stage IV melanoma; in vivo): 18%
patients with grade 3 or 4 adverse events (stage IV melanoma; in vivo): 56%
patients with partial response (stage IV melanoma; with cisplatin, second-line): 8.1%
patients with stable disease (stage IV melanoma; with cisplatin, second-line): 62.5%
patients with adverse events resulting in death ([3]; none considered definitely or probably related to talabostat): eight
durable complete responses ([3]; with docetaxel): two
overall response rate ([3]; with docetaxel): 9.1%
partial responses ([3]; with docetaxel): three
stable disease rate ([3]; with docetaxel): 54%
growth of syngeneic tumors [4]: slowed growth
serum DPPIV inhibition (serum DPPIV; dose of 600 ug/m2, at 24 hours): 85%
dose-limiting toxicities (serum DPPIV; phase I, pediatric solid tumors): No dose-limiting toxicities were observed
osteoclast activity, bone resorption and tumor burden (myeloma): reduced
efficacy of oxaliplatin (colon carcinoma): enhanced

polyphyllin
CAF proliferation in vitro (CAF): decreased
tumor growth in vivo (gastric cancer): decreased

sibrotuzumab: humanized monoclonal anti-FAP antibody
dose limiting toxicity ([5]; in vivo): one
clinical responses ([5]; phase I): no clinical responses
patients with stable disease ([5]; phase I): 2/26
tolerability ([6]; in vivo): well tolerated
clinical activity ([6]; phase II, trial suspended): lack of clinical activity
